# Laboratory results as given in US12144792B2, “Therapeutic agents for neurodegenerative diseases” (priority 2016, dated 2024).
# What was measured:
# [1] = test system: patient with GM1 Gangliosidosis; experiment: Case study, patient evaluation (SARA, mRDS, EQ-5D-5L); type: in vivo, human; conditions: Ex. 6, GM1 Gangliosidosis; 1.5 then 3 g per day; after one month
# Source text: Before treatment was commenced, examination of the patient indicated a Scale for Assessment and Rating of Ataxia (SARA) score of 35/40, a mRDS score of 15, and a EQ-5D-5L visual scale of 50. The patient was started on therapy with acetyl-leucine at a dose of 1.5 g per day for the first week, followed by a dose of 3 g per day for the second week onwards.
# [2] = test system: Hexb^−/− mouse (Sandhoff disease model); experiment: Bar crossing test; type: in vivo
# Source text: This study made use of a mouse model of Sandhoff disease, the Hexb^−/− mouse, as described in Jeyakumar et al. (Jeyakumar, M. et al. (1999) Proc. Natl. Acad. Sci. USA 96: 6388-6393). The bar crossing test is a method for assessing motor function in mice in which the mouse is placed hanging from the centre of a horizontal bar by its front limbs. A wild-type mouse with normal motor function will be able to engage its hind limbs and thereby move to one of the platforms at either end of the bar, and in doing so complete the test. […] In FIG. 7B, acetyl-leucine treatment of 0.1 g/kg body weight was provided from 3 weeks of age. The acetyl-leucine treated Sandhoff mice retained the ability to complete the test up to 13 weeks of age (inclusive). Data shown is the mean of 6 mice per group. The treated Sandhoff mice retained the ability to complete the test up to 13 weeks of age (inclusive).
# [3] = test system: Mucolipidosis Type II (MLII) patient fibroblasts; experiment: Lysosomal volume via LysoTracker; type: cell-based, human; conditions: 1 mM, 6 days, vs untreated
# patients with vertigo = conditions: used in France to treat acute vertigo since 1957; long-term safety not determined; cited from earlier work
# Npc1^−/− mice [4] = experiment: Motor function analysis (Open Field Activity Monitor); type: in vivo, mouse; conditions: 0.1 g/kg from weaning, nine weeks of age, vs untreated littermates
# Experimental: Separate groups of Npc1^−/− and Npc1^+/+ mice were left untreated, as controls. Motor function analysis was performed on mice at eight and nine weeks of age using an Open Field Activity Monitor according to manufacturer's instructions (Linton Instruments, Amlogger Software). Each mouse was placed in a plastic cage with bedding and analysed for five minutes. Rears were counted manually. Motor function parameters measured were: • 1. Centre Rearing: mice rearing on hind legs unsupported; • 2. Rearing: mice rearing on hind legs with and without the support of cage walls; • 3. Activity: regular movement of the animal including walks; • 4. Front to Back (FR) count: movement of the animal from front to back of the cage; • 5. Active Time: duration (s/min) of activeness regardless of movement; • 6. Mobile Time: duration (s/min) of mobility; • 7. Rearing Time: duration of any rearing.
# Npc1^−/− mice [5] = experiment: Gait analysis (CatWalk); type: in vivo, mouse; conditions: 0.1 g/kg from weaning, eight weeks of age, vs untreated littermates
# Experimental: Separate groups of Npc1^−/− and Npc1^+/+ mice were left untreated, as controls. Gait analysis was performed on mice at eight weeks of age using a CatWalk® 15.0 system according to manufacturer's instructions (Noldus, Nottingham, UK). Five runs were recorded per animal. CatWalk® parameters measured were: • 1. Stand Mean: average duration (s) of paws in contact with glass plate; • 2. Step Cycle: duration (s) between two consecutive contacts of the same paw; • 3. Duty Cycle: percentage of time paws in contact with plate compared with time to complete a step cycle; • 4. Step Sequence (AB): percentage of time spent walking in LF-RH-RF-LH alternating pattern (LF: left front; RH: right hind; RF: right front; LH left hind); • 5. Cadence: step per seconds in a trial; • 6. Diagonal Support: percentage of time with simultaneous contact of diagonal paws with the glass plate (RF&LH or RH&LF). Motor Function Analysis
# [6] = test system: Tay-Sachs disease patient fibroblasts; experiment: Glycosphingolipid (GSL) levels via HPLC; type: cell-based, human; conditions: 1 mM for 6 days, p<0.05
# [7] = test system: patients with downbeat nystagmus; experiment: Case studies, clinical examination (visual acuity, posturography); type: in vivo, human
# Source text: The patient was diagnosed with downbeat nystagmus: the patient was severely impaired by blurred vision (oscillopsia) due to the nystagmus, and experienced difficulties while reading and writing. The patient's visual acuity was: right 0.75, left 0.67, binocular 0.83, and the downbeat nystagmus was documented by video-oculography. […] […] […] The patient was able to suppress the nystagmus by visual fixation. In addition, the patient's spatial orientation was improved.
# [8] = test system: patient with corticobasal syndrome; experiment: Case study, clinical examination; type: in vivo, human
# Experimental: Gait analysis was performed before treatment commenced. After 20 days of acetyl-leucine treatment, the patient was re-examined. […] After 8 weeks of acetyl-leucine treatment, medication was stopped and the patient was re-examined 6 days later.
# [9] = test system: Mucopolysaccharidosis Type IIIB (MPS IIIB) patient fibroblasts; experiment: Lysosomal volume via LysoTracker; type: cell-based, human; conditions: 1 mM, 6 days, vs untreated
# [10] = test system: patients with amyotrophic lateral sclerosis (ALS); experiment: Case studies, medical examination; type: in vivo, human
# Source text: The results were documented by video.
# [11] = Ex. 12 Patient 1, approximately 14 weeks after starting
# [12] = Ex. 7 Patient 1, ALS, after a further 20 days
compound,measurement,setting,value
CC(=O)NC(CC(C)C)C(=O)O (racemic) [acetyl-DL-leucine],symptoms on re-examination,[1],"stable general condition, increased gait (more fluent), and stable stance in natural position"
same,age up to which the ability to complete the bar crossing test was retained,"[2]; Sandhoff mice, 0.1 g/kg from 3 weeks of age, inclusive",up to 13 weeks of age
same,motor function in bar-crossing test,"[2]; Sandhoff mouse, 0.1 g/kg body weight from 3 weeks of age",improved motor function and hind-limb mobility/engagement
same,LysoTracker fluorescence (lysosomal volume),[3],statistically significant reduction in LysoTracker fluorescence
same,safety profile,patients with vertigo,excellent safety profile
same,motor function properties,Npc1^−/− mice [4],significantly improved motor function
same,gait properties,Npc1^−/− mice [5],significantly improved gait
same,GSL levels,[6],this decrease was statistically significant
same,patient-reported benefit,"[7]; Ex. 12 Patient 1, downbeat nystagmus, 3 then 5 gram per day, after 10 days",significant benefit
same,"nystagmus, clinical examination by two independent examiners",[7]; [11],reduction of the nystagmus
same,posturography,[7]; [11],reduction of postural sway
same,side-effects,"[7]; Ex. 12 Patient 1, continued treatment at 5 gram per day",no side-effects resulted
same,symptoms,"[7]; Ex. 12 Patient 2, downbeat nystagmus, 3 g/day first week, 5 g/day thereafter",improvement of gait
same,dizziness and falls,"[8]; Ex. 10, corticobasal syndrome, 3 then 5 g per day, after 20 days",improvement of dizziness symptoms and significant reduction in the frequency of falls
same,symptoms after suspension,"[8]; Ex. 10, medication stopped after 8 weeks",increase of dizziness symptoms two days after suspension of treatment
same,LysoTracker fluorescence (lysosomal volume),[9],statistically significant reduction in LysoTracker fluorescence
same,speech,"[10]; Ex. 7 Patient 1, ALS, 3 then 5 gram per day, after 15 days",significant improvement of speech
same,speech after stopping treatment,"[10]; Ex. 7 Patient 1, ALS, about 7 days plus 1-2 additional weeks off treatment",deterioration of speech
same,paresis of the right foot-dorsiflexors and foot drop,[10]; [12],improved dramatically and were clinically hardly detectable
same,sleep,[10]; [12],improvement in sleep
same,speech,[10]; [12],further improvement of speech
same,symptomatology after resuming treatment,"[10]; Ex. 7 Patient 1, ALS, resumed after second discontinuation","improved symptomatology, in particular speech"
same,symptoms on re-examination,"[10]; Ex. 7 Patient 2, ALS, 3 then 5 g per day, after approximately 2 months","progredient deterioration of the motor function of the left hand, but a discrete improvement of walking"
same,symptomatology,"[10]; Ex. 7 Patient 3, ALS, 3 then 5 g per day, after one month",did not report improvement of symptomatology
same,symptomatology,"[10]; Ex. 7 Patient 4, ALS, 3 then 5 g per day, after about one month",subjective improvement of dysphagia and less hypersalivation
same,symptomatology after suspension,"[10]; Ex. 7 Patient 4, ALS, 10 days after therapy was suspended",worsening of symptomatology
